Structures can show the parent of a compound that is named as a salt. Where two headings read alike, the source gives them in different places.
Columns and labels:
[1] = biological target: human EP3 receptor (Homo sapiens (Human), UniProt P43115); test: Measurement of EP3 receptor binding affinity ([3H]PGE2 displacement, membrane fraction of Chem-1 cells)
Description: (§1) With regard to EP3 and EP4 receptors, measurements of receptor binding affinity were carried out according to the following methods in the same manner as in Test example 1.
(§2) The membrane fraction was recovered on glass fiber filter paper (GF/B, available from Whatman PLC) pretreated with 0.3% polyethyleneimine by using a cell harvester (M30R, available from Brandel Inc.), and after washing with a buffer solution (50 mM Tris-HCl (pH 7.4)), radioactivity was measured with a liquid scintillation analyzer (2000CA, available from Packard). […] The dissociation constant (Kd value) was calculated by Scatchard analysis.

[2] = biological target: human EP4 receptor (Homo sapiens (Human), UniProt P35408); test: Measurement of EP4 receptor binding affinity ([3H]PGE2 displacement, membrane fraction of Chem-1 cells)
Description: as §1
as §2, with “HEPES-NaOH” for “Tris-HCl”, “7.4), 500 mM NaCl, 0.1% BSA),” for “7.4)),”

[3] = biological target: T1, human EP2 receptor (Homo sapiens (Human), UniProt P43116); test: Measurement of EP2 agonist activity (cAMP amount in HEK 293 cells); format: cell-based; conditions: cAMP increase in HEK 293 cells expressing human EP2 receptor, 30 minutes
Description: Measurement of EP2 agonist activity was carried out according to the method of Wilson et al. (European Journal of Pharmacology, 501, 49 (2004)). HEK 293 cells (ES-562-C, available from Euroscreen S.A.) expressed human EP2 receptor were cultured in a MEM medium containing 10% FBS and seeded at 2×10^4 cells per each well of a 96-well plate. On the next day, the medium was replaced with serum-free MEM medium containing 3-isobutyl-1-methylxanthine (final concentration: 500 μM) and after culturing for 30 minutes, a test compound dissolved in dimethylsulfoxide was added followed by allowing to stand undisturbed in a carbon dioxide gas incubator. After 30 minutes, an amount of cAMP in the cells was measured with a cAMP Biotrak EIA System kit (available from GE Healthcare Bioscience).

[4] = biological target: T1, human EP2 receptor; test: Measurement of EP2 receptor binding affinity ([3H]PGE2 displacement, membrane fraction of HEK293 cells)
Description: Measurement of EP2 receptor binding affinity was carried out according to the method of Abramovitz et al. (Biochimica et Biophysica Acta, 1483, 285 (2000)). […] The membrane fraction was recovered on glass fiber filter paper (GF/B, available from Whatman PLC) using a cell harvester (M30R, available from Brandel Inc.), and after washing with a buffer solution (10 mM MES-KOH (pH 6.0), 10 mM MgCl2), radioactivity was measured with a liquid scintillation analyzer (2000CA, available from Packard). […] The dissociation constant (Kd value) was calculated by Scatchard analysis.

Chain of human EP4 receptor (P35408 whole entry): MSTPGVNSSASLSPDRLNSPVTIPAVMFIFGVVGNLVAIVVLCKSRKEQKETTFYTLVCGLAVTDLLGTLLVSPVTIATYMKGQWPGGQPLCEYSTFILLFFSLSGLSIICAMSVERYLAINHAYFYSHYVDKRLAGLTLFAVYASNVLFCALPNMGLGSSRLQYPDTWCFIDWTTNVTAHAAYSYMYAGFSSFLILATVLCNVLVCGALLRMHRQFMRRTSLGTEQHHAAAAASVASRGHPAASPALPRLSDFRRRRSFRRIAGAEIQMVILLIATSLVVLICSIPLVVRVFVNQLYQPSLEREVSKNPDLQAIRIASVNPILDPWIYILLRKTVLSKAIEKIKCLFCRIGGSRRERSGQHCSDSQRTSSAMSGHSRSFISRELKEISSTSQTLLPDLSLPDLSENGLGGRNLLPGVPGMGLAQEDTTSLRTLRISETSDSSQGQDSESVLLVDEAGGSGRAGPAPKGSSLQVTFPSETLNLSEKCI
Chain of human EP3 receptor (P43115 whole entry): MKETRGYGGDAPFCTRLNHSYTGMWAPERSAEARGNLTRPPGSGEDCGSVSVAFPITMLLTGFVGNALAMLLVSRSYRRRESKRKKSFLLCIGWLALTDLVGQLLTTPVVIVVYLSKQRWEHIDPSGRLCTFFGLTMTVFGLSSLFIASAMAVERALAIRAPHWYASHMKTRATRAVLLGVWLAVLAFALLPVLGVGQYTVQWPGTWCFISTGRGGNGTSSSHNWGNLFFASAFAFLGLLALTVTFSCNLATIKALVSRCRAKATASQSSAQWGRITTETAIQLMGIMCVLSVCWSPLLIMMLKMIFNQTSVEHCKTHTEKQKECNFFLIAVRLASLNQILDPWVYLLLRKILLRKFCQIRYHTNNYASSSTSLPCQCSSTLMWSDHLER
T1 sequence (P43116 whole entry): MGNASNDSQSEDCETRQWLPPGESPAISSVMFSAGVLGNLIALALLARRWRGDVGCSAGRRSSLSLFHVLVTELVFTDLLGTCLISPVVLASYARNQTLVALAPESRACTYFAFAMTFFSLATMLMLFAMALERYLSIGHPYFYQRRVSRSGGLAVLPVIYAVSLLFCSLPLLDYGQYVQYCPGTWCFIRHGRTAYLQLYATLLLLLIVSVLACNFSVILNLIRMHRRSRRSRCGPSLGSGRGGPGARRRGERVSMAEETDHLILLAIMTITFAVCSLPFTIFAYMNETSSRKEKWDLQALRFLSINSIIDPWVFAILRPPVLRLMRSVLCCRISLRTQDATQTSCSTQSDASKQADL

Compound | Ki [1] [nM] | Ki [2] [nM] | Ki ([1]; [3H]PGE2 2 nM, Chem-1 membrane fraction, Table 4) [nM] | EC50 [3] [nM] | Ki ([2]; [3H]PGE2 1 nM, Chem-1 membrane fraction, Table 4) [nM] | Ki ([4]; PGE2 receptor selectivity, Table 4, read-out: EP2 receptor binding affinity Ki value) [nM] | Ki ([4]; [3H]PGE2 10 nM, HEK293 membrane fraction, Table 2, read-out: Ki value of EP2 receptor binding affinity) [nM] | Ki ([4]; read-out: Ki value of EP2 receptor binding affinity) [nM]
O=C(O)CNc1cccc(CN(Cc2ccc(-c3nccs3)cc2)S(=O)(=O)c2cccnc2)n1 [Example 11, (6-{(Pyridin-3-ylsulfonyl)[4-(thiazol-2-yl)benzyl]aminomethyl}pyridin-2-ylamino)acetic Acid Trifluoroacetate] | > 10000 | 2800 | – | – | – | – | – | –
O=C(O)CNc1cccc(CN(Cc2ccc(-c3nccs3)cc2)S(=O)(=O)c2ccccn2)n1 [Example 3] | – | – | > 10000 | 0.45 | 4800 | 1.9 | 1.9 | –
O=C(O)CNc1cccc(CN(Cc2ccc(-c3nccs3)cc2)S(=O)(=O)c2ccc(F)cc2)n1 [Example 4, (6-{(4-Fluorobenzenesulfonyl)[4-(thiazol-2-yl)benzyl]aminomethyl}pyridin-2-ylamino)acetic Acid] | > 10000 | 2900 | – | 0.29 | – | – | – | 2.8
